This note sets out measurements from patent US20230174507A1, “IMIDAZOLE 3-OXIDE DERIVATIVE BASED ACSS2 INHIBITORS AND METHODS OF USE THEREOF” (METABOMED LTD., priority 2020, published 2023).

One assay has as its target T1, human ACSS1 protein (Homo sapiens, UniProt Q9NUB1).
T1 construct: purchased MyBioSource
T1 sequence (Q9NUB1 38-689): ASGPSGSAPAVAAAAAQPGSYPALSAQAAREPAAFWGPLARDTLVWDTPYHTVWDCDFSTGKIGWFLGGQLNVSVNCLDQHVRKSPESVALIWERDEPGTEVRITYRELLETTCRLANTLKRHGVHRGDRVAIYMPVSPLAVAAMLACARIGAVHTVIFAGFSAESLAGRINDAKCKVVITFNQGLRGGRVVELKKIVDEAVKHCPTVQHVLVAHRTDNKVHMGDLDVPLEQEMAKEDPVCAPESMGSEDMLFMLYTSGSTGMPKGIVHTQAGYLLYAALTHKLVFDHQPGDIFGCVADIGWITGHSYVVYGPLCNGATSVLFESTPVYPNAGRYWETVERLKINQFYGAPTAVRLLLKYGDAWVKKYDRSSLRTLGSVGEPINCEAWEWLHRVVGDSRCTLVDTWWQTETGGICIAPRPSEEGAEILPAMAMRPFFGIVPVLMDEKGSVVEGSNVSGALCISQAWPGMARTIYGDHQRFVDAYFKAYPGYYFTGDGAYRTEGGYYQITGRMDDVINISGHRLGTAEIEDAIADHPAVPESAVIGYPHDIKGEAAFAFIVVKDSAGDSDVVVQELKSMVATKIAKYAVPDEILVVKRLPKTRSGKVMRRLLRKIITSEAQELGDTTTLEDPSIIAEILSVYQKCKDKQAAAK
Briefly: ACSS1 cell-free activity assay (pyrophosphatase-coupled, Biomol green). Conditions: 5 nM human ACSS1, 30 minutes at room temperature, absorbance at 620 nm; for IC50: read-out: ACSS1 Biochemical IC50; call rule not given here. In kind it is biochemical. In outline:
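5 nM human ACSS1 incubated 30 min at RT with compound in pH 7.5 Hepes buffer with 15 μM CoA, 5 mM acetate, 300 μM ATP, 2 mM MgCl2 and pyrophosphatase. Released phosphate detected with Biomol Green (30 min), absorbance 620 nm. IC50 from constrained non-linear regression.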

For assay [1], the target named is T2, ACSS2 in MDA-MB-468 cells (Homo sapiens, UniProt Q9NR19).
T2 construct: endogenous in cells; host or cells: MDA-MB-468 cells, hypoxia (1% O2)
T2 sequence (Q9NR19 whole entry): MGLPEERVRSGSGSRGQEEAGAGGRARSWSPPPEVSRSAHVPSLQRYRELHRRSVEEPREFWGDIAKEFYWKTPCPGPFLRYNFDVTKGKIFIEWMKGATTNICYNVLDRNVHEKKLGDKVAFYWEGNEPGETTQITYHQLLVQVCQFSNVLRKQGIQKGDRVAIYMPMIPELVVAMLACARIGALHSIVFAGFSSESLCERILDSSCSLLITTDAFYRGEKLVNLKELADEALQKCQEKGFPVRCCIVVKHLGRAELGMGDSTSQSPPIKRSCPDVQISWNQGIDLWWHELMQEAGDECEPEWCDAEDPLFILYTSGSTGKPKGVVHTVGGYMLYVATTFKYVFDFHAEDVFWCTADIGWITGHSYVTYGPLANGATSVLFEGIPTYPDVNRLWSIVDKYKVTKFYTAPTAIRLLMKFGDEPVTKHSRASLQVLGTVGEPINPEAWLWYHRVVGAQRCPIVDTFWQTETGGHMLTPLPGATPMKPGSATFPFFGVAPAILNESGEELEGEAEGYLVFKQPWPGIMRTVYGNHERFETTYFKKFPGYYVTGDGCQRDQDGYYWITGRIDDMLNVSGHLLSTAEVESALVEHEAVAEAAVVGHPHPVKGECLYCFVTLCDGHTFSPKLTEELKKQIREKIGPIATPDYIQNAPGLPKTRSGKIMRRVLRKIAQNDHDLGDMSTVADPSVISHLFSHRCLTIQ
Briefly: Cellular fatty-acid IC50: 13C-acetate incorporation into fatty acids (palmitate), LC-MS. The assay is classed as cell-based. Conditions: hypoxic conditions (1% O2), 75% charcoal stripped serum, 5 hours, 13C-acetate into palmitate, read-out: Cellular Fatty-acid IC50 High Serum MDA468. In outline:
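MDA-MB-468 cells under hypoxia (1% O2) treated 5 h with compound (0.000512-1000 nM) in medium with 75% charcoal-stripped serum and 0.5 mM 13C-acetate. 13C-palmitate quantified by LC-MS (negative ion, RSIM). IC50 from inhibition versus no-compound control, background-subtracted, constrained 0–100% nonlinear fit.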

A further assay addresses T3, human ACSS2 protein (Homo sapiens, UniProt Q9NR19).
T3 construct: purchased OriGene Technologies, Inc
Briefly: ACSS2 cell-free activity assay (pyrophosphatase-coupled, Biomol green). The note with it: 10 nM human ACSS2, 90 minutes at 37 C, absorbance at 620 nm; read-out: ACSS2 Biochemical IC50. In outline:
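10 nM human ACSS2 incubated 90 min at 37 C with compound, 300 μM ATP, 10 μM CoA, 5 mM NaAc in pH 7.5 Hepes buffer with 0.5 U/ml pyrophosphatase. Released phosphate detected with Biomol Green at 620 nm; IC50 by non-linear regression constrained to 0% and 100%.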

Structures are written as SMILES.

T3 sequence (Q9NR19 whole entry): as above

On to `CNC(=O)c1cccc(NC(=O)c2c(C)[nH]c(-c3ccc(OC)c(-c4c(C)cc(F)cc4C)c3)[n+]2[O-])c1` [Compound 185, 2-(4′-fluoro-6-methoxy-2′,6′-dimethyl-[1,1′-biphenyl]-3-yl)-5-methyl-4-((3-(methylcarbamoyl)phenyl)carbamoyl)-1H-imidazole 3-oxide], for which the IC50 (in general, the concentration at which inhibition is half-maximal) on human ACSS1 protein was over 30 nM; in assay [1], under 20 nM; on human ACSS2 protein, under 1 nM.
For `COc1ccc(-c2[nH]c(C)c(C(=O)Nc3cccc(C(N)=O)c3)[n+]2[O-])cc1-c1c(C)cccc1C` [Compound 172, 4-((3-carbamoylphenyl)carbamoyl)-2-(6-methoxy-2′,6′-dimethyl-[1,1′-biphenyl]-3-yl)-5-methyl-1H-imidazole 3-oxide], the “ACSS1 Biochemical IC50 (nM)” value at human ACSS1 protein is on record as “Inactive”. Further, the values for the IC50 (in assay [1]; on human ACSS2 protein) were under 20 nM and under 1 nM, respectively.
As to `Cc1cccc(C)c1-c1cc(-c2[nH]c(C)c(C(=O)Nc3cccc(C(F)(F)C4CC4)c3)[n+]2[O-])ccc1OC(F)F` [Compound 113, N-[3-[cyclopropyl(difluoro)methyl]phenyl]-2-[4-(difluoromethoxy)-3-(2,6-dimethylphenyl)phenyl]-5-methyl-3-oxido-1H-imidazol-3-ium-4-carboxamide], the “ACSS1 Biochemical IC50 (nM)” value at human ACSS1 protein is “Inactive”. In addition, the IC50 in assay [1] is 20 to 50 nM; at human ACSS2 protein, under 1 nM.
For `CCC(F)(F)c1cccc(NC(=O)c2c(C)[nH]c(-c3ccc(OC(F)F)c(-c4c(C)cccc4C)c3)[n+]2[O-])c1` [Compound 103, 2-(6-(difluoromethoxy)-2′,6′-dimethyl-[1,1′-biphenyl]-3-yl)-4-((3-(1,1-difluoropropyl)phenyl)carbamoyl)-5-methyl-1H-imidazole 3-oxide], in that order: “Inactive”, 20 to 50 nM and under 1 nM.
For `CCC(F)(F)c1cccc(NC(=O)c2c(C)[nH]c(-c3cccc(-c4c(C)cnnc4C)c3)[n+]2[O-])c1` [Compound 116, 4-((3-(1,1-difluoropropyl)phenyl)carbamoyl)-2-(3-(3,5-dimethylpyridazin-4-yl)phenyl)-5-methyl-1H-imidazole 3-oxide] the same measures were “Inactive”, under 20 nM and under 1 nM.
For `CCC(F)(F)c1cccc(NC(=O)c2c(C)[nH]c(-c3cc(-c4c(C)cccc4C)c(OC)cc3F)[n+]2[O-])c1` [Compound 125, 4-((3-(1,1-difluoropropyl)phenyl)carbamoyl)-2-(4-fluoro-6-methoxy-2′,6′-dimethyl-[1,1′-biphenyl]-3-yl)-5-methyl-1H-imidazole 3-oxide], in that order: “Inactive”, under 20 nM and under 1 nM.
For the compound `CNC(=O)c1cccc(NC(=O)c2c(C)[nH]c(-c3ccnc(-c4c(C)cccc4C)c3)[n+]2[O-])c1` [Compound 178, 2-(2-(2,6-dimethylphenyl)pyridin-4-yl)-5-methyl-4-((3-(methylcarbamoyl)phenyl)carbamoyl)-1H-imidazole 3-oxide], the IC50 is over 30 nM at human ACSS1 protein, under 20 nM in assay [1] and under 1 nM at human ACSS2 protein.
Take `COc1ccc(-c2[nH]c(C)c(C(=O)Nc3cccc(-c4cnn(C)n4)c3)[n+]2[O-])cc1-c1c(C)cccc1C` [Compound 201, 2-(6-methoxy-2′,6′-dimethyl-[1,1′-biphenyl]-3-yl)-5-methyl-4-((3-(2-methyl-2H-1,2,3-triazol-4-yl)phenyl)carbamoyl)-1H-imidazole 3-oxide]: the “ACSS1 Biochemical IC50 (nM)” value on human ACSS1 protein is “Inactive”. The IC50 in assay [1] is under 20 nM; at human ACSS2 protein, under 1 nM.
For `Cc1cccc(C)c1-c1cc(C#N)cc(-c2[nH]c(C)c(C(=O)Nc3cccc(C(F)(F)C4CC4)c3)[n+]2[O-])c1` [Compound 135, 2-(5-cyano-2′,6′-dimethyl-[1,1′-biphenyl]-3-yl)-4-((3-(cyclopropyldifluoromethyl)phenyl)carbamoyl)-5-methyl-1H-imidazole 3-oxide], in that order: “Inactive”, 20 to 50 nM and under 1 nM.
With `COc1cc(F)c(-c2[nH]c(C)c(C(=O)Nc3cccc(C(F)(F)F)c3)[n+]2[O-])cc1-c1c(F)cccc1F` [Compound 207, 5-methyl-2-(2′,4,6′-trifluoro-6-methoxy-[1,1′-biphenyl]-3-yl)-4-((3-(trifluoromethyl)phenyl)carbamoyl)-1H-imidazole 3-oxide], the “ACSS1 Biochemical IC50 (nM)” value at human ACSS1 protein is given as “Inactive”. Besides, the IC50 in assay [1] was over 50 nM; at human ACSS2 protein, under 1 nM.
For the compound `CCC(F)(F)c1cccc(NC(=O)c2c(C)[nH]c(-c3ccc(OC)c(-c4c(C)cccc4C)c3)[n+]2[O-])c1` [Compound 102, 4-((3-(1,1-difluoropropyl)phenyl)carbamoyl)-2-(6-methoxy-2′,6′-dimethyl-[1,1′-biphenyl]-3-yl)-5-methyl-1H-imidazole 3-oxide], on human ACSS1 protein, the “ACSS1 Biochemical IC50 (nM)” value is on record as “Inactive”. Besides, the IC50 in assay [1] is under 20 nM; at human ACSS2 protein, under 1 nM.
For `CCC(F)(F)c1cccc(NC(=O)c2c(C)[nH]c(-c3cc(-c4c(C)cccc4C)c(OC)cc3N)[n+]2[O-])c1` [Compound 124] the same measures were “Inactive”, over 50 nM and under 1 nM.
For `Cc1cncc(C)c1-c1cc(-c2[nH]c(C)c(C(=O)Nc3cccc(C(F)(F)C4CC4)c3)[n+]2[O-])ccc1OC(F)F` [Compound 115, 4-((3-(cyclopropyldifluoromethyl)phenyl)carbamoyl)-2-(4-(difluoromethoxy)-3-(3,5-dimethylpyridin-4-yl)phenyl)-5-methyl-1H-imidazole 3-oxide] the same measures were “Inactive”, under 20 nM and under 1 nM.
With `CNC(=O)c1cccc(NC(=O)c2c(C)[nH]c(-c3cc(N)cc(-c4c(C)cccc4C)c3)[n+]2[O-])c1` [Compound 180, 2-(5-amino-2′,6′-dimethyl-[1,1′-biphenyl]-3-yl)-5-methyl-4-((3-(methylcarbamoyl)phenyl)carbamoyl)-1H-imidazole 3-oxide], the IC50 was over 30 nM on human ACSS1 protein, under 20 nM in assay [1] and under 1 nM on human ACSS2 protein.
On to `CCC(F)(F)c1cccc(NC(=O)c2c(C)[nH]c(-c3ccc(Cl)c(-c4c(C)cccc4C)c3)[n+]2[O-])c1` [Compound 108, 2-(6-chloro-2′,6′-dimethyl-[1,1′-biphenyl]-3-yl)-4-((3-(1,1-difluoropropyl)phenyl)carbamoyl)-5-methyl-1H-imidazole 3-oxide], for which, at human ACSS1 protein, the “ACSS1 Biochemical IC50 (nM)” value was “Inactive”. Besides, the IC50 is 20 to 50 nM in assay [1] and under 1 nM at human ACSS2 protein.
Take `CNS(=O)(=O)c1cccc(NC(=O)c2c(C)[nH]c(-c3ccc(OC)c(-c4c(C)cccc4C)c3)[n+]2[O-])c1` [Compound 187, 2-(6-methoxy-2′,6′-dimethyl-[1,1′-biphenyl]-3-yl)-5-methyl-4-((3-(N-methylsulfamoyl)phenyl)carbamoyl)-1H-imidazole 3-oxide]: the “ACSS1 Biochemical IC50 (nM)” value at human ACSS1 protein is given as “Inactive”. Besides, the IC50 in assay [1] was 20 to 50 nM; at human ACSS2 protein, under 1 nM.
